The source made the active and inactive calls. The rule behind the calls is not given here.
Target: T1, Enoyl-acyl-carrier protein reductase (Plasmodium falciparum) (UniProt Q965D5)
T1 sequence (whole entry): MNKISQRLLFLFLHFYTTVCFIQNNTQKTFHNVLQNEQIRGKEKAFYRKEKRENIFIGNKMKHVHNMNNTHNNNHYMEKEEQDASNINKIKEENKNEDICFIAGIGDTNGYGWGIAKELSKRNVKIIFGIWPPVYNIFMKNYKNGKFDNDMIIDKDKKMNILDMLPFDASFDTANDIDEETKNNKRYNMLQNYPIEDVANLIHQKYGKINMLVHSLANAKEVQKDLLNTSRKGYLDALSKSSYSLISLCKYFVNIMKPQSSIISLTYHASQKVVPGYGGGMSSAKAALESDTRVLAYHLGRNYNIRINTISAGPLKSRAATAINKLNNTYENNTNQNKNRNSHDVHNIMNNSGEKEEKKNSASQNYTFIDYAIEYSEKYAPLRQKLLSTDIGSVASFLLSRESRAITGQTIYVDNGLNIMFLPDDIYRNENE
Experiment: Inhibition of Plasmodium falciparum FabI at 100 uM

inhibition	SMILES
inactive	COc1ccc(-c2cc(=O)c3c(O)c(O)c(OC)cc3o2)cc1
inactive	COc1cc2c(c(O)c1OC)C(=O)C[C@@H](c1ccc(O)cc1)O2
inactive	O=c1cc(-c2ccccc2)oc2ccc(O)cc12

Reference: ChEMBL document CHEMBL1208779, “Integrated ligand and structure based studies of flavonoids as fatty acid biosynthesis inhibitors of Plasmodium falciparum” (Bioorg Med Chem Lett, 2010)
